Activity calls are given as the source filed them. Cut-off read from the data, not from the text of the source, for most assays here: actives have a measured Kd and inactives only a lower limit.
Tests used:
[1] = molecular target: T1, Ferrochelatase, mitochondrial (Homo sapiens, UniProt P22830)
T1 sequence (P22830 whole entry): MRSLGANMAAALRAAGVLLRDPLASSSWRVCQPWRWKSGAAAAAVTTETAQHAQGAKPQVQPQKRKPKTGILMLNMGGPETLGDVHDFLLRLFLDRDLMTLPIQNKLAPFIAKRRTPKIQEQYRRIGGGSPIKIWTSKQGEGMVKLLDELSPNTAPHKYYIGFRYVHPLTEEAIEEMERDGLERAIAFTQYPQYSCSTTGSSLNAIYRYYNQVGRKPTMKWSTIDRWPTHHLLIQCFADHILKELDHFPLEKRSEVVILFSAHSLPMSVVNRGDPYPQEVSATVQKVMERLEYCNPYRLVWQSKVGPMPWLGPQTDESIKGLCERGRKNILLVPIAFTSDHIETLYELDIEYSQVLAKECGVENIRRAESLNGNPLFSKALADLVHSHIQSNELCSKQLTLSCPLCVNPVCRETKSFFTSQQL

[2] = molecular target: Serine/threonine-protein kinase N2 (Homo sapiens, UniProt Q16513)
Serine/threonine-protein kinase N2, sequence (Q16513 whole entry): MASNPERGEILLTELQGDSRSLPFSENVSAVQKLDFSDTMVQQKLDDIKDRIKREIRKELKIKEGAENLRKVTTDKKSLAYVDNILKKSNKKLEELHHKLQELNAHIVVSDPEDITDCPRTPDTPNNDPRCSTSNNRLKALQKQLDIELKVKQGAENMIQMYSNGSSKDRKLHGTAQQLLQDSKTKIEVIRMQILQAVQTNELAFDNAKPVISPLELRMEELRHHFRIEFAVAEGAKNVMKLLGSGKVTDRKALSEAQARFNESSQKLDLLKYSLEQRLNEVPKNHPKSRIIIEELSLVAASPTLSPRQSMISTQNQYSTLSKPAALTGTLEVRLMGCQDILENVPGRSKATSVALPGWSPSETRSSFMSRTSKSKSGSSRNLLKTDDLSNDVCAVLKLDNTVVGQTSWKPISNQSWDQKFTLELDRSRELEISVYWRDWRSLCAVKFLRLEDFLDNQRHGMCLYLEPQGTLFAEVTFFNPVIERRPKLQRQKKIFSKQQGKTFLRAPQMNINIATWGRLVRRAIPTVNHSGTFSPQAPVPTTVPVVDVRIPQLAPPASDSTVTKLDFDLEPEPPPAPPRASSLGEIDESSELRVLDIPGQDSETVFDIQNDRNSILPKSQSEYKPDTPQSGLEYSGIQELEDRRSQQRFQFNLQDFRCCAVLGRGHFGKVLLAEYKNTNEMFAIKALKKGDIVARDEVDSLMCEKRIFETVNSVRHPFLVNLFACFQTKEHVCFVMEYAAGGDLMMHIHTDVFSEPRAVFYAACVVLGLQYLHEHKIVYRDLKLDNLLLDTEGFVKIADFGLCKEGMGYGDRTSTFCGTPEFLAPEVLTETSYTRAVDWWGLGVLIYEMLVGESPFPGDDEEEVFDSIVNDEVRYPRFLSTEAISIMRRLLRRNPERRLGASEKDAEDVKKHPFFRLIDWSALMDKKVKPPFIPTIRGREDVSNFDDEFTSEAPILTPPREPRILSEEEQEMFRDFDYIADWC

[3] = molecular target: Mitogen-activated protein kinase 11 (Homo sapiens, UniProt Q15759)
Mitogen-activated protein kinase 11, sequence (Q15759 whole entry): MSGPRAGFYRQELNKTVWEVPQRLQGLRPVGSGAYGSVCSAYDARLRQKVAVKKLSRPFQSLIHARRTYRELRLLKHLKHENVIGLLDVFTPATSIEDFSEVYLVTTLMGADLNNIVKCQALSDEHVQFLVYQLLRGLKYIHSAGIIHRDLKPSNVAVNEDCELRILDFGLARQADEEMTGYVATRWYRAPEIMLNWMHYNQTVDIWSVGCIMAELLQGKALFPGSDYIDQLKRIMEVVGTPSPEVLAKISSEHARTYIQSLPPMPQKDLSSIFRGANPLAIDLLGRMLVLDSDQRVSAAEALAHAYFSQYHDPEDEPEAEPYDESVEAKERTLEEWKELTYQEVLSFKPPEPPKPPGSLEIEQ

[4] = molecular target: T2, Inhibitor of nuclear factor kappa-B kinase subunit epsilon (Homo sapiens, UniProt Q14164)
T2 sequence (Q14164 whole entry): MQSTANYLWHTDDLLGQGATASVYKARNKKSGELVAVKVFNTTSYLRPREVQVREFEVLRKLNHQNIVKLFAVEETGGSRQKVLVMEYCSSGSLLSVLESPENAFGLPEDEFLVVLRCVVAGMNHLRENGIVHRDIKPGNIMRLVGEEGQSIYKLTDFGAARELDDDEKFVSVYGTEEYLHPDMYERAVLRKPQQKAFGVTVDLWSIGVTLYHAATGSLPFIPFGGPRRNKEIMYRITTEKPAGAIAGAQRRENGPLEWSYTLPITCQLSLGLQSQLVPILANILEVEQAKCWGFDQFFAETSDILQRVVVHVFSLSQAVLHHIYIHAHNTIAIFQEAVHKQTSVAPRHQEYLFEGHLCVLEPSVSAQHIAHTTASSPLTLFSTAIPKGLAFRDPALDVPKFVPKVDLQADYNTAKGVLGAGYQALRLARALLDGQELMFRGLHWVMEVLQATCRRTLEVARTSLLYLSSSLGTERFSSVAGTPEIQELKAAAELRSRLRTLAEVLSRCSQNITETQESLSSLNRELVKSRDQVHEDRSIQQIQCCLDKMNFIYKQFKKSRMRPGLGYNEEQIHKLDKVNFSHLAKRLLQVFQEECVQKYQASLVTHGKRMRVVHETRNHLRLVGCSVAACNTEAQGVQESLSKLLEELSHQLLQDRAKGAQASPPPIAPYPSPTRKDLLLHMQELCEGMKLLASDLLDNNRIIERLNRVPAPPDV

Ephrin type-B receptor 2 = molecular target: T3, Ephrin type-B receptor 2 (Homo sapiens, UniProt P29323)
T3 sequence (P29323 whole entry): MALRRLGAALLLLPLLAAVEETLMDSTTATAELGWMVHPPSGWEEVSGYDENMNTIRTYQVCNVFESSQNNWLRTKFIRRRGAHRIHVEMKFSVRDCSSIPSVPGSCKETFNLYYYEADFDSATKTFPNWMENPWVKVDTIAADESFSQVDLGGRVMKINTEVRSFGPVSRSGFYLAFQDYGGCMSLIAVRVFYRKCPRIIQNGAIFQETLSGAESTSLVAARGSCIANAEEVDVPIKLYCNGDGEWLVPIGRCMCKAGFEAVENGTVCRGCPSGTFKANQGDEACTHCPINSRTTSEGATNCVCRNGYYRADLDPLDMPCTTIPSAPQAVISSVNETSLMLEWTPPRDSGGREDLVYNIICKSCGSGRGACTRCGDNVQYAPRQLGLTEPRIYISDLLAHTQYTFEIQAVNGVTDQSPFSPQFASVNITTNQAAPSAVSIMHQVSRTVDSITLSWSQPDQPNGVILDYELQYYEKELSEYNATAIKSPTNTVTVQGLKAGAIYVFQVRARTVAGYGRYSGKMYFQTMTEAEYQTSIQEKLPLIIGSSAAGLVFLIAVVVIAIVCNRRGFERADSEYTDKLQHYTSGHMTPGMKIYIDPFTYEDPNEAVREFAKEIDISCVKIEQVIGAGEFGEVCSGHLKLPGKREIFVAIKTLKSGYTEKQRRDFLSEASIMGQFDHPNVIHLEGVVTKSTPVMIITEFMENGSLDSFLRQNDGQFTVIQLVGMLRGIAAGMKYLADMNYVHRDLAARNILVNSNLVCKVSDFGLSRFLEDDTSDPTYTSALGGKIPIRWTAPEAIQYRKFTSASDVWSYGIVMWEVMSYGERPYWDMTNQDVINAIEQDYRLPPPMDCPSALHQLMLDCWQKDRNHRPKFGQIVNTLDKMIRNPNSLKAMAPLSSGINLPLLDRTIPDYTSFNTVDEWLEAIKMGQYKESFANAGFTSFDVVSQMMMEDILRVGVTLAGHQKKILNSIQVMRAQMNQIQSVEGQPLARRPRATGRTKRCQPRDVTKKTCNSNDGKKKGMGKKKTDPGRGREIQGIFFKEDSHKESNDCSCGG

[5] = molecular target: Ras-related protein Rab-6A (Homo sapiens, UniProt P20340)
Ras-related protein Rab-6A, sequence (P20340 whole entry): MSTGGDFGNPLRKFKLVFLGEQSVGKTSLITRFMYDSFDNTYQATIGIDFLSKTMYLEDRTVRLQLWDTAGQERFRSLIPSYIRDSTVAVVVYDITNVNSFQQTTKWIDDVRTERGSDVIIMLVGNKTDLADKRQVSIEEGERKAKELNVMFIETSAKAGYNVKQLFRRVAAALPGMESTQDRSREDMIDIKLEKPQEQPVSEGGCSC

[6] = molecular target: STE20-like serine/threonine-protein kinase (Homo sapiens, UniProt Q9H2G2)
STE20-like serine/threonine-protein kinase, sequence (Q9H2G2 whole entry): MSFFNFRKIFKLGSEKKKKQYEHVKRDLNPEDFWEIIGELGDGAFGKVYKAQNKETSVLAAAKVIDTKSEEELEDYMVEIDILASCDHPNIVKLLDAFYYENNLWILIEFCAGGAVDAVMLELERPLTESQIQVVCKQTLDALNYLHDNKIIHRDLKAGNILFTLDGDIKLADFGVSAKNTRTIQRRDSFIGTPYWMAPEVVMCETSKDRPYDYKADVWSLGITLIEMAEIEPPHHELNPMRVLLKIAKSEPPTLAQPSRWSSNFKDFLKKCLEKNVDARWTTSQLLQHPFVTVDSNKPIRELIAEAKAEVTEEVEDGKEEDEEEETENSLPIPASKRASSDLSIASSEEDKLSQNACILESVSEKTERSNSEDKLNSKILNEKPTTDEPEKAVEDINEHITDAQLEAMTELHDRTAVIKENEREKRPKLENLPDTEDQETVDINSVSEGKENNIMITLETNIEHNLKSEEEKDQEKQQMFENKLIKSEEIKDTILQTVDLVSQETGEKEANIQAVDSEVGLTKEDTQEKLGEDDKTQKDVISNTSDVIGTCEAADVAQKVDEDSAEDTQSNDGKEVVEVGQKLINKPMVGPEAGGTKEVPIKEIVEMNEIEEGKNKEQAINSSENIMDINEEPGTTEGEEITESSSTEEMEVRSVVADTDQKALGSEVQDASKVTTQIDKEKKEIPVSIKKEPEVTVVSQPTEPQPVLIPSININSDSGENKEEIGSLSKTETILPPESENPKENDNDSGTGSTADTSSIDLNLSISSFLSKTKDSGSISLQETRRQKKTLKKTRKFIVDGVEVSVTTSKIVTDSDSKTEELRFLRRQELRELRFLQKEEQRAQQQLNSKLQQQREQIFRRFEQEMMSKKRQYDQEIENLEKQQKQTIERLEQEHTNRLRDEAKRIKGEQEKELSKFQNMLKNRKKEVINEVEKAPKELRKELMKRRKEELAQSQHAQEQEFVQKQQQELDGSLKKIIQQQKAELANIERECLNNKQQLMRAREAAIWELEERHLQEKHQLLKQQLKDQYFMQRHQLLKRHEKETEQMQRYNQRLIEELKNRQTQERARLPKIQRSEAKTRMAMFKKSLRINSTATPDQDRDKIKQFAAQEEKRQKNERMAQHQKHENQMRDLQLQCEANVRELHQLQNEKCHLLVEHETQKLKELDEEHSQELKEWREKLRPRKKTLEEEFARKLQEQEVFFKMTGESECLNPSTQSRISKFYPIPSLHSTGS

Pyridoxal kinase = molecular target: T4, Pyridoxal kinase (Homo sapiens, UniProt O00764)
T4 sequence (O00764 whole entry): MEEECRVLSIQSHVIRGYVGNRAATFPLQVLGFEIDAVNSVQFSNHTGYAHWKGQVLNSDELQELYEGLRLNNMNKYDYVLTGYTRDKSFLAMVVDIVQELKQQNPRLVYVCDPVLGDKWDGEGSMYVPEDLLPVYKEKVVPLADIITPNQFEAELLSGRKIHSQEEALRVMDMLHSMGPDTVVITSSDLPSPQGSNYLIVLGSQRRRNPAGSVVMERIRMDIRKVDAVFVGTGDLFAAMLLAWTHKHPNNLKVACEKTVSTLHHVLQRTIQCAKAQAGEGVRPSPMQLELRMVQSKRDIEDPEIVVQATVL
Note: in the data inactive means no Kd found up to 30 µM.

Row | Kd [1] | Kd [2] | Kd [3] | Kd [4] | Kd (Ephrin type-B receptor 2) | Kd [5] | Kd [6] | Kd (Pyridoxal kinase) | Compound
1 | > 30 µM (inactive) | > 30 µM (inactive) | > 30 µM (inactive) | > 30 µM (inactive) | > 30 µM (inactive) | > 30 µM (inactive) | > 30 µM (inactive) | > 30 µM (inactive) | CNC(=O)c1cccc(-c2ccc3c(N4CCOC[C@@H]4C)nc(N4CCOC[C@@H]4C)nc3n2)c1 [VISTUSERTIB]
2 | > 30 µM (inactive) | > 30 µM (inactive) | > 30 µM (inactive) | > 30 µM (inactive) | > 30 µM (inactive) | > 30 µM (inactive) | 4.37 µM (active) | > 30 µM (inactive) | COc1cc2ncnc(Nc3ccc(O)cc3)c2cc1OC [WHI-P131]

More lines, now with the values behind:

Row | Compound | Kd [1] | Kd [2] | Kd [3] | Kd [4] | Kd (Ephrin type-B receptor 2) | Kd [5] | Kd [6] | Kd (Pyridoxal kinase)
3 | CNC(=O)c1cc(COc2nnc(Nc3ccc(Cl)cc3)c3ccoc23)ccn1 [TELATINIB] | > 30 µM (inactive) | > 30 µM (inactive) | > 30 µM (inactive) | > 30 µM (inactive) | > 30 µM (inactive) | > 30 µM (inactive) | > 30 µM (inactive) | > 30 µM (inactive)
4 | Cc1cc(-c2cc(OC(=O)c3ccccc3)ccc2Cl)cc2nnc(Nc3ccc(OCCN4CCCC4)cc3)nc12 [TG100-801] | > 30 µM (inactive) | > 30 µM (inactive) | > 30 µM (inactive) | > 30 µM (inactive) | 1.3 µM (active) | > 30 µM (inactive) | > 30 µM (inactive) | > 30 µM (inactive)
5 | C[C@@H]1COC(Nc2ccc3ncnc(Nc4ccc(OCc5nccs5)c(Cl)c4)c3c2)=N1 [VARLITINIB] | 76.4 µM | > 30 µM (inactive) | > 30 µM (inactive) | > 30 µM (inactive) | > 30 µM (inactive) | > 30 µM (inactive) | > 30 µM (inactive) | > 30 µM (inactive)

Reference: ChEMBL document CHEMBL3991601, “The target landscape of clinical kinase drugs” (Science, 2017)
